Where “and” joins values, the source holds several entries; their conditions need not be identical. Identical values can stand only once.
Columns and labels:
patients with PNH [1] = assay: PEGASUS Phase 3 trial, 16-week randomized controlled period: hematologic and fatigue efficacy endpoints; assay type: in vivo, human; settings: for non-inferiority to eculizumab on absolute reticulocyte count / non-inferiority to eculizumab on transfusion avoidance: key secondary endpoint; for non-inferiority to eculizumab on absolute reticulocyte count: margin 10; for non-inferiority to eculizumab on transfusion avoidance: margin -20%
Excerpt: The PEGASUS trial protocol consisted of an 8-week screening period, a 52-week treatment period, and a 12-week follow up period.
The treatment period consisted of three parts: a 4-week run-in period, a 16-week Randomized Controlled Period and a 32-week open-label Study Drug only period.
During the Randomized Controlled Period, subjects returned to the clinical site at Weeks 1, 2, 4, 6, 8, 12 and 16 for efficacy and safety assessments.
The primary endpoint in the study was an increase in hemoglobin level from baseline to Week 16 (excluding data before the Randomized Controlled Period). Key secondary endpoints included transfusion avoidance, reduction in reticulocyte count, reduction in LDH level, and changes in Functional Assessment of Chronic Illness Therapy (FACIT)-fatigue scale score, Version 4. […] Hierarchical significance testing for secondary efficacy endpoints was gated on the success of the primary efficacy endpoint. Post hoc analyses included hemoglobin stabilization (defined as avoidance of a >1 g/dL decrease from baseline) in the absence of transfusions and hematologic response to treatment.
The between-treatment group comparison for the primary efficacy endpoint was performed using a mixed effect model for repeated measures (MMRM) (Mallinckrodt, DID 42:30 (2008)). The model included fixed categorical effects for treatment group, study visit, stratification variables (based on transfusion history and platelet count) and the study visit-bytreatment group interaction, as well as the continuous, fixed covariate of baseline Hb level.
The number and percentage of subjects with transfusion avoidance were tabulated by treatment group and compared between treatment groups using a stratified Cochran-Mantel Haenszel (CMH) chi-square test. The treatment difference in percentages and 95% confidence interval for the difference were presented using the stratified method (Miettinen, Statistics in Medicine 4:213-226 (1985)).
The change from baseline at Week 16 in reticulocyte count, LDH level and FACIT-fatigue scale score were analyzed using the same methods described for the primary analysis of the primary efficacy endpoint except using their own baseline as a covariate, using the ITT and mITT sets.
For any subject who discontinued study treatment, any values collected after discontinuation continued to be used in analyses (Treatment Policy).
Additionally, the primary endpoint of hemoglobin change from baseline (before first dose of pegcetacoplan) to week 16 and secondary endpoints (transfusion avoidance, change from baseline at week 16 in absolute reticulocyte count and lactate dehydrogenase) were analyzed by subgroups based on number of packed red blood cell transfusions (<4 vs ≥4) within the 12 months prior to Day -28 and platelet count at screening (<100,000 /mm^3 vs >100,000 /mm^3).

patients with PNH [2] = assay: PEGASUS 48-week safety; settings: 48-week study
patients with PNH [3] = assay: PEGASUS safety, 16-week randomized controlled period
Protocol: (§1) Pharmacokinetics and pharmacodynamics were also assessed, including change from baseline in percentage of PNH Type II + III RBCs at week 16, and change from baseline in percentage of PNH Type II + III RBCs opsonized with C3 at week 16. Incidence and severity of treatment-emergent adverse events (TEAEs), incidence of thromboembolic events, changes from baseline in laboratory parameters, and changes from baseline in electrocardiogram (ECG) parameters were also assessed.
(§2) The primary endpoint was assessed on ITT set (included all subjects who were randomized), and change from Baseline to Week 16 in Hb level was measured. […] Safety Analysis was conducted in the safety set (which included all subjects who were randomized and received at least 1 dose of monotherapy Study Drug).
(§3) Subjects were divided into various sets. The Run-in Set included all subjects who received at least one dose of APL-2. The Intent-to-Treat (ITT) Set included all subjects who were randomized. The analyses using this set was based upon the randomized treatment group allocated. The Safety Set included all subjects who were randomized and received at least 1 dose of monotherapy Study Drug. This set was used for safety analyses. The analyses using this set were based upon the actual treatment received. The Modified ITT (mITT) Set included all subjects in the ITT set who received at least one dose of monotherapy beyond their Week 4 after randomization in the Randomized Controlled Period. The analyses using this set were based upon the randomized treatment group allocated. […] Subjects were required to receive their randomized treatment to be included in the set and so analyses using this set were by default based upon the actual treatment group allocated. The Completer Set consisted of all subjects in the ITT set who completed the Week 16 efficacy assessment for the study. The analyses using this set were based upon the randomized treatment group allocated.

patients with PNH [4] = assay: PEGASUS post hoc hematologic response categorization; assay type: in vivo, human; settings: 16 weeks
Excerpt: Complete response: no transfusions required, stable Hb in the normal range, and no evidence of hemolysis (i.e., LDH ≤1.5× upper limit of normal [ULN], ARC ≤150,000 /µL). Major response: no transfusion, normal Hb, but with evidence of hemolysis (LDH >1.5×ULN and/or ARC >150,000 /µL). Good response: no transfusion, but with chronic mild anemia or evidence of hemolysis. Partial response: chronic moderate anemia and/or occasional transfusions (<3 units/6 months). Minor response: regular transfusions required (3-6 units/6 months). No response: regular and frequent transfusions required (>6 units/6 months).

patients with PNH [5] = settings: in vivo
Protocol: as §1, §2, §3

[6] = week 16, <4 transfusions stratum
[7] = week 16, <100,000 /mm^3 platelet stratum
[8] = week 16, censored for transfusion
[9] = week 16, ≥4 transfusions stratum
[10] = week 16, ≥100,000 /mm^3 platelet stratum
[11] = 16-week randomized, controlled treatment period

Poly(oxy-1,2-ethanediyl), α-hydro-ω-hydroxy-, 15,15ʹ -diester with N-acetyl-L-isoleucyl-L-cysteinyl-L-valyl-1-methyl-L-tryptophyl-L-glutaminyl-L-α-aspartyl-L-tryptophylglycyl-L-alanyl-L-histidyl-L-arginyl-L-cysteinyl-L-threonyl-2-[2-(2-aminoethoxy)ethoxy]acetyl-N^6-carboxy-L-lysinamide cyclic (2-->12)-(disulfide) [pegcetacoplan]
patients achieving at least a three-point improvement in FACIT-fatigue score (patients with PNH [1]; 16 weeks): 73%
patients achieving reticulocyte normalization (patients with PNH [1]; 16 weeks, 30-120 × 10^9 cells/L): 78%
patients achieving LDH normalization (patients with PNH [1]; 16 weeks, normal range 113-226 U/L): 71%
transfusion avoidance, adjusted risk difference versus eculizumab (patients with PNH [1]; <4 transfusions group, 95% CI 26.2%-81.3%): 53.8%
FACIT-fatigue score, adjusted mean change from baseline to Week 16 (patients with PNH [1]; MMRM): 9.2
absolute reticulocyte count, adjusted mean decrease from baseline to week 16 (patients with PNH [1]; baseline 217×10^9 /L): 1.35e+11 L⁻¹
non-inferiority to eculizumab on absolute reticulocyte count (patients with PNH [1]): Non-inferiority was met
non-inferiority to eculizumab on absolute reticulocyte count (patients with PNH [1]; listed as Pegcetacoplan): met non-inferiority
non-inferiority to eculizumab on transfusion avoidance (patients with PNH [1]): Non-inferiority was met
non-inferiority to eculizumab on transfusion avoidance (patients with PNH [1]; listed as Pegcetacoplan): met non-inferiority
subjects who required transfusions post randomization (patients with PNH [1]; out of 41 (pegcetacoplan group), out of 39 (eculizumab group)): 6 subjects
proportion of transfusion-free patients (patients with PNH [1]; over 16 weeks, <4 transfusions within 12 months prior to Day -28): 85%
transfusion avoidance (transfusion-free patients) (patients with PNH [1]; over 16 weeks, all patients): 85.4% and 85%
proportion of transfusion-free patients (patients with PNH [1]; over 16 weeks, platelet stratum <100,000 /mm^3): 83.3%
proportion of transfusion-free patients (patients with PNH [1]; over 16 weeks, platelet stratum ≥100,000 /mm^3): 86.2%
proportion of transfusion-free patients (patients with PNH [1]; over 16 weeks, ≥4 transfusions within 12 months prior to Day -28): 85.7% and 86%
transfusion avoidance, adjusted risk difference versus eculizumab (patients with PNH [1]; overall patients, 95% CI 48.3%-76.8%): 62.5%
hemoglobin higher than the eculizumab arm (patients with PNH [1]; week 16): 53%
mean hemoglobin change from baseline regardless of baseline platelet count strata (patients with PNH [1]; week 16): significantly increased
LDH LS mean change from baseline (patients with PNH [1]; [6]): -52.31 U/L
absolute reticulocyte count LS mean change from baseline (patients with PNH [1]; [6]): -152.59 × 10^9 cells/L
LDH LS mean change from baseline (patients with PNH [1]; [7]): -73.14 U/L
absolute reticulocyte count LS mean change from baseline (patients with PNH [1]; [7]): -147.17 × 10^9 cells/L
adjusted mean hemoglobin change from baseline (patients with PNH [1]; week 16, all patients, baseline 8.7 g/dL, post-transfusion data excluded): 2.4 g/dL
proportion of patients achieving hemoglobin normalization (patients with PNH [1]; [8]): 34%
proportion of patients achieving ≥2 g/dL improvement in hemoglobin (patients with PNH [1]; [8]): 61%
proportion of patients achieving hemoglobin stabilization (patients with PNH [1]; week 16, censored for transfusion, avoidance of >1 g/dL decrease from baseline): 85%
adjusted mean hemoglobin change from baseline (patients with PNH [1]; week 16, fewer than 4 transfusions within 12 months prior to Day -28, baseline 8.9 g/dL): 2.97 g/dL
indirect bilirubin level (patients with PNH [1]; week 16, including post-transfusion data): 13.8 µmol/L
non-inferiority to eculizumab in the change from baseline in LDH (patients with PNH [1]; week 16, margin 20): did not demonstrate non-inferiority
mean FACIT-fatigue score (patients with PNH [1]; week 16, observed data, baseline 32.2 (pegcetacoplan), 31.6 (eculizumab)): 41.8 (SD 9.61)
improvement in adjusted means of hemoglobin versus eculizumab (patients with PNH [1]; week 16, p<0.0001, MMRM): 3.8 g/dL
LDH LS mean change from baseline (patients with PNH [1]; [9]): -54.99 U/L
absolute reticulocyte count LS mean change from baseline (patients with PNH [1]; [9]): -124.75 × 10^9 cells/L
LDH LS mean change from baseline (patients with PNH [1]; [10]): -41.96 U/L
absolute reticulocyte count LS mean change from baseline (patients with PNH [1]; [10]): -137.28 × 10^9 cells/L
LDH adjusted mean change from baseline (patients with PNH [1]; week 16, baseline 258 U/L (pegcetacoplan), 309 U/L (eculizumab)): -15 U/L
transfusion avoidance, adjusted risk difference versus eculizumab (patients with PNH [1]; ≥4 transfusions group, 95% CI 64.2%-98.5%): 81.4%
cases of meningitis (patients with PNH [2]): No cases
diarrhea (patients with PNH [2]): 21%
discontinuations due to hemolysis (patients with PNH [2]): five
hemolysis (adverse event) (patients with PNH [2]): 24%
injection site reactions (patients with PNH [2]): 36%
patients who experienced a serious adverse event (patients with PNH [2]; 24 of 80 pegcetacoplan monotherapy-treated patients): 30%
deaths (patients with PNH [2]; due to COVID-19, unrelated to study treatment): One death
SAEs assessed to be possibly related to study treatment (patients with PNH [2]; five of the SAEs): 6%
patients who discontinued due to adverse events (patients with PNH [2]; twelve out of 80 patients): 15%
LDH increase in subjects discontinuing due to hemolysis (patients with PNH [3]; 3 subjects of the pegcetacoplan group): 3-11 × ULN
hemolysis (adverse event) (patients with PNH [3]; 16-week period, four patients pegcetacoplan, nine patients eculizumab): 9.8%
patients who experienced a serious adverse event (patients with PNH [3]; 16-week period, seven of 41 pegcetacoplan, 6 of 39 eculizumab): 17.1%
Abdominal Pain (adverse event) (patients with PNH [3]; 16-week randomized period): 5 (12.2) n(%)
Any TEAE (patients with PNH [3]; 16-week randomized period): 36 (87.8) n(%)
Back Pain (adverse event) (patients with PNH [3]; 16-week randomized period): 3 (7.3) n(%)
Diarrhea (adverse event) (patients with PNH [3]; 16-week randomized period): 9 (22.0) n(%)
Discontinuations due to AE (patients with PNH [3]; 16-week randomized period): 3 (7.3) n(%)
Dizziness (adverse event) (patients with PNH [3]; 16-week randomized period): 1 (2.4) n(%)
Headache (adverse event) (patients with PNH [3]; 16-week randomized period): 3 (7.3) n(%)
Meningitis (patients with PNH [3]; 16-week randomized period): 0 n(%)
Serious AE (patients with PNH [3]; 16-week randomized period): 7 (17.1) n(%)
cases of meningitis (patients with PNH [3]; 16-week randomized period): No cases
deaths (patients with PNH [3]; 16-week randomized period): no deaths
fatigue (adverse event) (patients with PNH [3]; 16-week randomized period): 2 (4.9) n(%)
hemolysis (adverse event) (patients with PNH [3]; 16-week randomized period): 4 (9.8) n(%)
injection site reactions (patients with PNH [3]; 16-week randomized period): 15 (35.6) n(%)
tolerability (patients with PNH [3]; 16-week randomized period): generally well tolerated
diarrhea (patients with PNH [3]; [11]): 22.0%
fatigue (adverse event) (patients with PNH [3]; [11]): 4.9%
headache (patients with PNH [3]; [11]): 7.3%
injection site reactions (patients with PNH [3]; [11]): 36.6%
Adverse Events as primary reason for withdrawal from study treatment (all reported as hemolysis) (patients with PNH [3]; through week 16): 3 (7.3) n (%)
complete hematologic responses (patients with PNH [4]; ITT): 39%
good hematologic responses (patients with PNH [4]; ITT): 31.7%
minor hematologic responses (patients with PNH [4]; ITT): 4.9%
no hematologic response (patients with PNH [4]; ITT): 0%
partial hematologic responses (patients with PNH [4]; ITT): 14.6%
patients achieving at least a good hematological response (patients with PNH [4]; 29/41 pegcetacoplan, 2/39 eculizumab): 70.7%
All Infections (patients with PNH [5]): 12 (29.3) n(%)
Sepsis (patients with PNH [5]): 0 n(%)
